We go through 1 compound from patent US20080039321A1, “Plant Growth Regulation” (priority 2004, published 2008).

This test has as its system wheat (Triticum aestivum, variety "TRISO"). Kind of test: Root growth assay, seed treatment, wheat. As to conditions: Root Growth of 100 is set as the standard, 16 (±2) days post treatment. Type of test: in vivo. The source says: Plant roots are a highly proliferative tissue that allows an easy accessible, cheap and short term screening method for plant growth regulators. The results obtained can easily be transferred to the overall effects on a plant of plant growth regulators identified by such a system. By using this root assay one is enabled to determine the effect of a seed treatment to root growth and/or germination and/or changes in habitat of germinated plants in order to identify the possible use as a yield enhancer. Two seeds of wheat (Triticum aestivum, variety “TRISO”) or 1 seed of maize (Zea mays, variety “LORENZO”) per hole in a plastic tray which contains an architecture of 8×13 holes were placed on compost soil covered with sand. These seeds were treated with 100 μl/hole, which creates an application volume of approx. 1200 l/ha, of a compound solution at active ingredient rates equivalent to 100, 10 and 1 g a.i./ha of each compound using an robotic application system (Lizzy Spray Robotics). Six replicates in a row of each compound and concentration were done. The outer rim of the above defined plastic tray was untreated to avoid false negative effects and the middle row (No. 7) was used as untreated control. The treated seeds were allowed to dry for approx. 4 hours and subsequently covered with sand and watered. The trays were stored in climate chambers with 14 hours lighting at a temperature of 24° C. (±2) at daytime and 16° C. (±2) at night and relative humidity (rH) of 60% and daily watered. Assessments were done 16 (±2) days post treatment by counting the germinated plants and assessing the phytotoxicity symptoms and percentage. In addition, the roots were washed out and the shoots were cut directly above the seed and the wet roots were placed on dry paper towels for approximately 30 minutes and weighted afterwards. This procedure provides a similar grade of moisture to the roots so that a comparison of the weights is possible. […]

Molecules are shown by their SMILES.

Regarding `Nc1nc(OCC23CC4CC(CC(C4)C2)C3)c2nc[nH]c2n1` [Compound 1.1, O6-Adamantylmethyl-9H-purin-2-ylamine], the “Root Growth” value is, setting by setting: (1 g a.i./ha) 84; (10 g a.i./ha) 76; (100 g a.i./ha) 141.
